Laboratory results: patent publication US11453632B2, “1-phenyl-2-phenylethane derivative” (KAO CORPORATION, priority 2018, dated 2022)

Key:
[1] = system: prostate of testosterone-induced prostatic hyperplasia rat; test: Efficacy on prostate in testosterone-induced prostatic hyperplasia rat; format: in vivo; details: testosterone 3 mg/kg/day plus test substance 0.1 or 1 mg/kg body weight/day, subcutaneous osmotic pump, 28 days, vs testosterone alone
Text: 12-week-old male Slc:SD (SPF) rats were obtained from Japan SLC, Inc. An acclimatization period was established for 1 week after receipt. During the acclimatization period, the rats were allowed to freely ingest a powder diet (AIN-93G).
2) Implantation of Osmotic Pump
(§1) After body weight measurement, back hair was shaved under isoflurane (AbbVie GK) inhalation anesthesia, and carprofen was subcutaneously administered to the rats. Then, an incision of approximately 1 cm at the maximum was made on the cranial side in the back. An osmotic minipump Alzet (Muromachi Kikai Co., Ltd.) containing testosterone and compound 17-F or finasteride (Sigma-Aldrich Co. LLC) was subcutaneously implanted. From this osmotic pump, testosterone (3 mg/kg body weight/day) (Sigma-Aldrich Co. LLC) and compound 17-F (0.1 mg/body weight/day or 1 mg/kg body weight/day) or finasteride (0.1 mg/kg body weight/day or 1 mg/kg body weight/day) were continuously administered for 28 days. Since the implantation of the osmotic pump, the rats were allowed to freely ingest customized feed AIN-93G (Oriental Yeast Co., Ltd.) free from components derived from soybeans.
3) Photographing of Skin and Harvesting of Prostate
After a lapse of 28 days, body weights were measured, and subsequently, the rats were euthanized by blood letting under isoflurane anesthesia. Back hair was shaved, followed by photographing. Then, the abdominal cavity was opened to harvest the prostate on the ventral side. Wet weights were measured.

[2] = system: back skin browning induced by testosterone; test: Effect on sebum secretion (back skin browning) in testosterone-treated rat; format: in vivo; details: testosterone 3 mg/kg/day plus test substance, subcutaneous osmotic pump, 28 days
Text: as §1, with “12-week-old male Slc:SD (SPF) rats were obtained from Japan SLC, Inc. An acclimatization period was established for 1 week after receipt. During the acclimatization period, the rats were allowed to freely ingest a powder diet (AIN-93G). 2) Implantation of Osmotic Pump After” for “After”, “soybeans. 3) Photographing of Skin and Harvesting of Prostate After a lapse of 28 days, body weights were measured, and subsequently, the rats were euthanized by blood letting under isoflurane anesthesia. […] Wet weights were measured. […]” for “soybeans.”

CC(C)(C)NC(=O)[C@H]1CC[C@H]2[C@@H]3CC[C@H]4NC(=O)C=C[C@]4(C)[C@H]3CC[C@]12C [finasteride, reference compound]
size of the prostate (visual, FIG. 1) [1]: Concentration-dependent decrease in the size of the prostate
weight of the prostate corrected with the body weight (FIG. 2) [1]: decreased to almost the same level as in the DMSO administration group
skin browning induced by testosterone (sebum secretion, FIG. 3) [2]: such an inhibitory effect was not confirmed
